From patent US11912662B1, “2-alkoxy[4,3:6,2-terpyridine]-3-carbonitrile as antimicrobial compounds” (KING FAISAL UNIVERSITY, priority 2023, dated 2024)

What was measured:
Assay type in all cases: cell-based
[1] = tested on: Escherichia coli; assay: Agar plate disc-diffusion antibacterial test, Escherichia coli; details: nutrient agar, 37° C., 48 h, DMSO control zone subtracted
Protocol: (§1) The agar plate disc-diffusion method was applied. Sterilized filter papers (6 mm in diameter) were wetted with 10 μL of a solution of 2-ethoxy[4,3:6,2-terpyridine]-3-carbonitrile (4) or 2-methoxy[4,3:6,2-terpyridine]-3-carbonitrile (5) to be tested, containing […], and the discs were allowed to air dry. The discs were then placed onto the surface of agar plates (nutrient agar for bacteria and Sabouraud's dextrose agar for fungi) seeded with the test organism. Each plate contained 15 mL of the agar medium, previously seeded with 0.2 mL of the broth culture of each organism pre-grown for 18 hours. The plates were incubated at 37° C. for 48 h, and 72 h for fungi. The inhibition zones were measured in mm. Discs impregnated with DMSO were used as a control, and its inhibition zone was subtracted from the tested compound actual inhibition zone.
(§2) The results of the antimicrobial testing can be observed in Tables 1 and 2, below, using ciprofloxacin as a reference.

[2] = tested on: Staphylococcus aureus; assay: Agar plate disc-diffusion antibacterial test, Staphylococcus aureus; details: nutrient agar, 37° C., 48 h, DMSO control zone subtracted
Protocol: as §1, §2

[3] = tested on: Aspergillus flavus; assay: Agar plate disc-diffusion antifungal test, Aspergillus flavus; details: Sabouraud's dextrose agar, 37° C., 72 h, DMSO control zone subtracted
Protocol: as §1, §2

[4] = tested on: Pseudomonas aeruginosa; assay: Agar plate disc-diffusion antibacterial test, Pseudomonas aeruginosa; details: nutrient agar, 37° C., 48 h, DMSO control zone subtracted
Protocol: as §1, §2

[5] = tested on: Chrysosporium keratinophilum; assay: Agar plate disc-diffusion antifungal test, Chrysosporium keratinophilum; details: Sabouraud's dextrose agar, 37° C., 72 h, DMSO control zone subtracted
Protocol: as §1, §2

[6] = tested on: Bacillus cereus; assay: Agar plate disc-diffusion antibacterial test, Bacillus cereus; details: nutrient agar, 37° C., 48 h, DMSO control zone subtracted
Protocol: as §1, §2

[7] = A = concentration of comp. = 10,000 μL
[8] = B = concentration of comp. = 30.000 μL
[9] = C = concentration of comp. = 50,000 μL

Structure (SMILES) | inhibition zone [1, 7] | inhibition zone [1, 8] | inhibition zone [1, 9] | inhibition zone [2, 7] | inhibition zone [2, 8] | inhibition zone [2, 9] | inhibition zone [3, 7] | inhibition zone [3, 8] | inhibition zone [3, 9] | inhibition zone [4, 7] | inhibition zone [4, 8] | inhibition zone [4, 9] | inhibition zone [5, 7] | inhibition zone [5, 8] | inhibition zone [5, 9] | inhibition zone [6, 7] | inhibition zone [6, 8] | inhibition zone [6, 9]
CCOc1nc(-c2ccccn2)cc(-c2cccnc2)c1C#N [Compound 4, 2-ethoxy[4,3:6,2-terpyridine]-3-carbonitrile] | 28 mm | 37 mm | 51 mm | 16 mm | 20 mm | 28 mm | 20 mm | 23 mm | 35 mm | 24 mm | 29 mm | 46 mm | 22 mm | 24 mm | 35 mm | 25 mm | 27 mm | 40 mm
COc1nc(-c2ccccn2)cc(-c2cccnc2)c1C#N [Compound 5, 2-methoxy[4,3:6,2-terpyridine]-3-carbonitrile] | 29 mm | 38 mm | 54 mm | 18 mm | 22 mm | 31 mm | 21 mm | 26 mm | 31 mm | 25 mm | 29 mm | 47 mm | 25 mm | 27 mm | 47 mm | 26 mm | 28 mm | 41 mm
O=C(O)c1cn(C2CC2)c2cc(N3CCNCC3)c(F)cc2c1=O [Cip., ciprofloxacin, reference compound] | 30 mm | 39 mm | 60 mm | 43 mm | 44 mm | 53 mm | 29 mm | 30 mm | 42 mm | 29 mm | 30 mm | 53 mm | 29 mm | 30 mm | 53 mm | 29 mm | 30 mm | 42 mm
